# From US5747269A, “Determination of peptide motifs on MHC molecules” (Max-Planck-Gesellschaft zur Forderung der Wissenschaften …, priority 1991, dated 1998)
# Where no end group is shown, it is not given here.
# Legend:
# K^d = settings: natural influenza epitope; cited from earlier work
Sequence,K^d restriction / T cell epitope (K^d),match of the K^d-eluted self peptide sequence with the K^d-restricted consensus motif (H-2K^d)
TYQRTRALV [TYQRTRALV (SEQ ID NO:1)],natural K^d -restricted influenza epitope,–
SYFPEITHI [SYFPEITHI (SEQ ID NO:2)],–,matches the consensus motif
